Test results reported in ChEMBL document CHEMBL6127035, “Novel pyridazinone derivatives bind to KSRP: Synthesis, anti-tumor biological evaluations and modelling insights” (Eur J Med Chem, 2024).
Calls of active or inactive are those of the source. The calls are words filed in the database; no cut-off is given here.

How the values were obtained:
[1] = tested on: 4T1; assay: Antiproliferative activity against mouse 4T1 cells assessed as reduction in cell viability incubated for 2 days by MTT assay; format: functional, cell-based; details: 4T1, 48 h
[2] = tested on: MCF7; assay: Antiproliferative activity against human MCF7 cells assessed as reduction in cell viability incubated for 2 days by MTT assay; format: functional, cell-based; details: MCF7, 48 h
[3] = tested on: MDA-MB-231; assay: Antiproliferative activity against human MDA-MB-231 cells assessed as reduction in cell viability incubated for 2 days by MTT assay; format: functional, cell-based; details: MDA-MB-231, 48 h
[4] = tested on: NCI-H460; assay: Antiproliferative activity against human NCI-H460 cells assessed as reduction in cell viability incubated for 2 days by MTT assay; format: functional, cell-based; details: NCI-H460, 48 h
[5] = tested on: KB; assay: Antiproliferative activity against human KB cells assessed as reduction in cell viability incubated for 2 days by MTT assay; format: functional, cell-based; details: 48 h
[6] = tested on: A549; assay: Antiproliferative activity against human A549 cells assessed as reduction in cell viability incubated for 2 days by MTT assay; format: functional, cell-based; details: A549, 48 h
[7] = tested on: HCT-116; assay: Antiproliferative activity against human HCT-116 cells assessed as reduction in cell viability incubated for 2 days by MTT assay; format: functional, cell-based; details: HCT-116, 48 h
[8] = tested on: U-87 MG; assay: Antiproliferative activity against human U-87 MG cells assessed as reduction in cell viability incubated for 2 days by MTT assay; format: functional, cell-based, U-87MG ATCC; details: 48 h
[9] = tested on: MIA PaCa-2; assay: Antiproliferative activity against human MIA PaCa-2 cells assessed as reduction in cell viability incubated for 2 days by MTT assay; format: functional, cell-based; details: MIA PaCa-2, 48 h
[10] = Cytotoxicity against human L02 cells assessed as reduction in cell viability incubated for 2 days by MTT assay; format: toxicity, cell-based
[11] = molecular target: T1, Far upstream element-binding protein 2 (Homo sapiens) (UniProt Q92945); assay: Binding affinity to full length KSRP (unknown origin) incubated overnight by SDS-PAGE based immunoblot analysis
T1 sequence (whole entry): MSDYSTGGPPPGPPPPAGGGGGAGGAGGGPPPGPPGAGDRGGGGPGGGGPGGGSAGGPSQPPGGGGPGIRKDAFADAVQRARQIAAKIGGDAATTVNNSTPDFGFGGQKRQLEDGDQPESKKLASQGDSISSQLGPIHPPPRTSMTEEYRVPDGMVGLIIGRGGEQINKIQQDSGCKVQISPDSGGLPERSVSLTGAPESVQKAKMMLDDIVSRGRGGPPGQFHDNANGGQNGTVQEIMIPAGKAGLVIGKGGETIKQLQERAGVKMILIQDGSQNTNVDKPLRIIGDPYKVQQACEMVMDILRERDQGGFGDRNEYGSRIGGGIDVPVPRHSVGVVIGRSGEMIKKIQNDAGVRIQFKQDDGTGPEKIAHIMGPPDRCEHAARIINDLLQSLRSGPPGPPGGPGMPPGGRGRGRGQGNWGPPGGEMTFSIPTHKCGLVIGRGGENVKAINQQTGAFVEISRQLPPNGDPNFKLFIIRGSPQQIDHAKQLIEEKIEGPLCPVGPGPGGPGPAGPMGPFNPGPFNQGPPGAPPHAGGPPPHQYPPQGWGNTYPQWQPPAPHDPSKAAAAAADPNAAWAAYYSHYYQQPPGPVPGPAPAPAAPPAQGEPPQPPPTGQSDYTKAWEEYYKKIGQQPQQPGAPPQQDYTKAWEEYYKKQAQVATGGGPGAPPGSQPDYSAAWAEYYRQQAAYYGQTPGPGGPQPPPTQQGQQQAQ

[12] = molecular target: T1, Far upstream element-binding protein 2 (Homo sapiens); assay: Binding affinity to full-length KSRP (1 to 715 residues) (unknown origin) extracted from Escherichia coli incubated overnight by SDS-PAGE based immunoblot analysis
[13] = molecular target: T1, Far upstream element-binding protein 2 (Homo sapiens); assay: Binding affinity to KSRP KH23 domain (214 to 413 residues) (unknown origin) extracted from Escherichia coli incubated overnight by SDS-PAGE based immunoblot analysis
[14] = molecular target: T2, Far upstream element-binding protein 2 (Homo sapiens, UniProt Q92945); assay: Binding affinity to recombinant full-length KSRP (unknown origin) assessed as dissociation constant by SPR analysis
T2 sequence (Q92945 whole entry): T1 sequence (whole entry)

SMILES | IC50 [1] | IC50 [2] | IC50 [3] | IC50 [4] | IC50 [5] | IC50 [6] | IC50 [7] | IC50 [8] | IC50 [9] | IC50 at 2 days [10] | Activity [11] | Activity [12] | Activity [13] | Kd [14]
CCN(CCOC)S(=O)(=O)c1ccc(-n2ncc(Cl)c(Cl)c2=O)cc1 | 1.8 µM | > 10 µM | > 10 µM |  |  |  |  |  |  |  |  |  |  | 
O=c1c(Cl)c(Cl)cnn1-c1ccc(S(=O)(=O)NCCCN2CCCC2)cc1 | 1.45 µM | 4.43 µM | 9.11 µM | 1.94 µM | 0.58 µM | 1.8 µM | 0.99 µM | 0.7 µM | 0.87 µM | 8.15 µM |  |  |  | 
CN(CCOS(C)(=O)=O)S(=O)(=O)c1ccc(-n2ncc(Cl)c(Cl)c2=O)cc1 | 2.1 µM | 5.18 µM | 16 µM | 0.66 µM | 0.38 µM | 1.96 µM | 0.73 µM | 0.32 µM | 0.39 µM | 4.24 µM |  |  |  | 
O=C(CCCC[C@@H]1SC[C@@H]2NC(=O)N[C@@H]21)NCCCCNS(=O)(=O)c1ccc(-n2ncc(Cl)c(Cl)c2=O)cc1 | 2.15 µM | 8.28 µM | 2.55 µM |  | 6.77 µM |  |  |  | 3.22 µM |  | Active | Active | Active | 17.7 µM
